Measured values taken from patent US20220193047A1, “METHODS OF ENHANCING RADIOTHERAPY USING FERROPTOSIS INDUCERS AS RADIOSENSITIZERS” (THE TRUSTEES OF COLUMBIA UNIVERSITY IN THE CITY OF NEW YORK, priority 2019, published 2022).
* marks the point of attachment. Cbz = O=C(OCc1ccccc1)*; CH2F = FC*

Legend:
[1] = tested on: models of glioma, melanoma, and breast cancer; conditions: Cobler et al., 2018, Nagane et al., Sleire et al., 2015; cited from earlier work
HT-1080 cells [2] = assay: Cell Titer Glo cell viability assay with radiation; assay type: cell-based; conditions: for Cell viability after radiation (ATP-based luciferase assay): HT-1080, 4 Gy radiation for 24 h
Method: HT-1080 cells were plated at 1,000 cells per well in white 96-well plates (100 uL per well) in technical duplicates. The cells were then treated with vehicle (DMSO), Ferrostatin-1, DFO, Z-VAD-FMK or Necrostatin-1S and incubated overnight. […] After another 24 h, 100 uL of 50% Cell Titer Glo (Promega) 50% cell culture medium was added to each well and incubated at room temperature with shaking for 15 min. Luminescence was measured using a Victor X5 plate reader (PerkinElmer). Experiments were performed three independent times with different passages for each cell line.

HT-1080 cells [3] = assay: Clonogenic assay with Cs-137 gamma radiation, HT-1080; assay type: cell-based; design: key to CDI with radiation: CDI = AB/(A×B) of surviving fractions; <1 synergy; conditions: for CDI with radiation: 5 μM sorafenib, HT-1080; for Colony formation after radiation alone: HT-1080, 2 or 4 Gy radiation, no ferroptosis inducer; for CDI with 4 Gy IR / CDI with 2 Gy IR: HT-1080 cells, CDI<1 synergy; for CDI with 2 Gy IR: inducer concentration (300 nM IKE, 20 nM RSL3, 1 nM staurosporine, 2 nM doxorubicin, 300 nM rapamycin, 100 ng/mL TNF + 20 μM Z-VAD-FMK + 300 nM birinapant); for Enhancement of radiation effect on clonogenic survival: HT-1080, cell death inducer plus radiation
Method: 500 cells were seeded per well in 6-well plates in their respective growth media and incubated overnight. The next day, cells were co-treated with DMSO or compounds and radiation using a Gammacell 40 Caesium-137 irradiator (Theratronics). Plates were monitored every day using a light microscope for formation of colonies in the DMSO-treated wells. When colonies of >50 cells are clearly visible, the growth medium was discarded from all plates. The cells were washed with PBS, then fixed and stained with crystal violet solution (0.05% crystal violet, 1% formaldehyde, 1% methanol in PBS). Colonies were then directly visualized and counted.
We tested their ability to prevent clonogenic growth, along with DMSO-treated controls.
The coefficient of drug interaction (CDI), used to compute interaction between two drugs, was used to quantify synergy between cell death inducers and radiation according to the formula CDI=AB/(A×B), where AB is the surviving fraction of the combination treatment, and A and B are the surviving fractions of the individual treatments.

HT-1080 xenograft tumors = assay: HT-1080 tumor xenograft study in mice; conditions: 40 mg/kg i.p. daily for 14 days
Method: The injections were repeated daily for 14 days. […] For the sorafenib experiment, the formulation used was 40 mg/kg sorafenib in 5% DMSO, 20% ethanol in water containing 30% w/v cyclodextrin. […] Tumor size was measured daily using calipers and mouse weight was measured daily.
The efficacy of the combined treatment regimen of radiation and ferroptosis inducer was evaluated in an in vivo tumor model. […] Athymic nude mice were implanted with subcutaneous HT-1080 fibrosarcoma cells to form xenograft tumors.

[4] = tested on: GSH in HT-1080 xenograft tumors; assay: Reduced glutathione in xenograft tumor tissue
Method: The cell pellet was resuspended in 100 μl of RIPA buffer and homogenized by pipetting. The lysate was centrifuged at 16,700×g at 4° C. for 15 min, and cleared lysate was used to determine the amount of GSH in the sample. We used the GSH/GSSG ratio detection assay kit (Abcam, #ab138881) and followed the product instructions to determine GSH levels.
The injections were repeated daily for 14 days. […] Tumor size was measured daily using calipers and mouse weight was measured daily. The animal protocols containing all the procedures were approved by Columbia University's IACUC.

[5] = tested on: reduced glutathione (GSH) in HT-1080 cells; assay: Reduced glutathione measurement in cells; assay type: cell-based; conditions: HT-1080, 6 Gy radiation for 24 hours, vs DMSO, sorafenib alone or radiation alone
Method: Cystine taken up by system xc^− is reduced to cysteine, a building block in the biosynthesis of glutathione. […] Using a fluorometric GSH probe, we observed that treatment with 2 or 6 Gy radiation for 24 hours depleted GSH in a dose-dependent manner in HT-1080 cells (FIG. 2E). […] Indeed, the decrease in colony formation of HT-1080 cells following 2 or 4 Gy radiation was rescued by either glutathione methyl ester or N-acetylcysteine, which is a biological precursor to glutathione (FIG. 9).

[6] = tested on: TM00219 patient-derived xenograft tumors; assay: Patient-derived xenograft study in mice (TM00219 lung adenocarcinoma); assay type: in vivo; conditions: 40 mg/kg i.p. daily for 14 days, NSG mice
Method: The experiment was conducted according to the same protocol as the HT-1080 tumor xenograft study, with the exception that a single dose of radiation (sham or 6 Gy) was delivered to the tumor on day 1 of the experiment.
Finally, the effect of ferroptosis-inducing system xc^− inhibitors, in combination with radiation, was tested on a patient-derived xenograft (PDX) model of lung adenocarcinoma, which is another type of cancer commonly treated with radiation therapy. NSG mice engrafted with a human lung adenocarcinoma tumor (TM00219) were evaluated.

cleaved caspase-3 = assay: Western blot of cleaved caspase-3; assay type: cell-based
Method: 1 million cells were seeded in 10 cm dishes and treated with compounds and/or radiation on the next day. […] After quantification by Bradford, samples were mixed with 5×SDS loading buffer and separated by SDS-polyacrylamide gel electrophoresis. After transfer, membranes were blocked for 10 min in Tris-buffered saline (pH 7.4) with 1% Tween-20 (TBS-T) with 5% milk and incubated in primary antibody overnight at 4° C. Following 3× for 5 min washes in TBS-T, the membrane was incubated with secondary antibodies for 1 hr. The membrane was washed again in TBST 3× for 5 min prior to visualization using enhanced chemiluminescence (ECL Western Blotting Substrate, Pierce). Antibody for cleaved caspase 3 (Cell Signaling Technology, #9661) was used at 1:1000 and detected using a Peroxidase AffiniPure Goat Anti-Rabbit IgG (H+L) (Jackson ImmunoResearch, 111-295-144) at 1:5000 dilution.
DNA damage is a potent inducer of apoptosis. […] Despite this, some quantity of 17-kDa cleaved caspase-3 was still detectable in the Z-VAD-FMK-treated sample. To further check for potential radiation-induced apoptosis in this model at a later time point, we attempted to rescue the effects of radiation using 100 μM Z-VAD-FMK after 48, 72, and 96 h (FIG. 10).

O=C(O)c1cc(/N=N/c2ccc(S(=O)(=O)Nc3ccccn3)cc2)ccc1O [sulfasalazine]
Potentiation of radiation (prior reports) [1]: potentiate radiation

Cn1cnc(N)c2ncnc1-2 [3-methyladenine]
Cell viability after radiation (ATP-based luciferase assay) (HT-1080 cells [2]): also rescued cells

CNC(=O)c1cc(Oc2ccc(NC(=O)Nc3ccc(Cl)c(C(F)(F)F)c3)cc2)ccn1 [sorafenib]
CDI with radiation (HT-1080 cells [3]; 2 Gy): 0.65
CDI with radiation (HT-1080 cells [3]; 4 Gy): 0.47
Tumor volume, sorafenib alone vs control (HT-1080 xenograft tumors): No difference was observed
GSH in tumor tissue, sorafenib vs vehicle ([4]; 40 mg/kg sorafenib i.p. 14 days): significantly lower GSH
GSH in tumor tissue, dual-treated ([4]; 40 mg/kg sorafenib i.p. 14 days plus 6 Gy on days 1 and 3): further significant GSH depletion
Levels of GSH, sorafenib plus radiation [5]: significant depletion of GSH
Tumor growth, combination with radiation vs all other groups ([6]; 6 Gy on day one): significant tumor growth inhibition
Tumor growth, drug alone vs vehicle only [6]: significant tumor control

COC(=O)CNC(=O)[C@H](CS)NC(=O)CC[C@H](N)C(=O)O [glutathione methyl ester]
Colony formation after radiation alone (HT-1080 cells [3]): rescued

CO[C@H]1C[C@@H]2CC[C@@H](C)[C@@](O)(O2)C(=O)C(=O)N2CCCC[C@H]2C(=O)O[C@H]([C@H](C)C[C@@H]2CC[C@@H](O)[C@H](OC)C2)CC(=O)[C@H](C)/C=C(\C)[C@@H](O)[C@@H](OC)C(=O)[C@H](C)C[C@H](C)/C=C/C=C/C=C/1C [rapamycin]
CDI with 4 Gy IR (HT-1080 cells [3]): 0.62
CDI with 2 Gy IR (HT-1080 cells [3]): 0.89

CN[C@@H]1C[C@H]2O[C@@](C)([C@@H]1OC)n1c3ccccc3c3c4c(c5c6ccccc6n2c5c31)C(=O)NC4 [staurosporine]
Enhancement of radiation effect on clonogenic survival (HT-1080 cells [3]): only slightly enhancing radiation-induced cell death
CDI with 4 Gy IR (HT-1080 cells [3]): 0.83
CDI with 2 Gy IR (HT-1080 cells [3]): 1.1
Cleavage of caspase-3, compound alone (cleaved caspase-3; HT-1080, IKE or RSL3 24 h, staurosporine 500 nM for 6 h): induced cell death along with levels of caspase-3 cleavage

CN1C(=O)NC(Cc2c[nH]c3c(Cl)cccc23)C1=O (stereo not drawn) [necrostatin-1S]
Cell viability after radiation (ATP-based luciferase assay) (HT-1080 cells [2]): not

Cc1c(C)c2c(c(C)c1O)CCC(C)(C(=O)O)O2 (stereo not drawn) [trolox]
Colony formation after radiation alone (HT-1080 cells [3]): partially rescued cell death induced by radiation alone
Synergy between IKE or RSL3 and radiation in colony formation (HT-1080 cells [3]; HT-1080, co-treatment with ferroptosis inhibitor): suppress the synergy

Cbz-Val-Ala-Asp-CH2F
Staurosporine-induced cell death (cleaved caspase-3; HT-1080, 500 nM staurosporine plus 100 μM Z-VAD-FMK): rescued from staurosporine-induced cell death
Rescue of cell viability after radiation at later time points (HT-1080 cells [2]; HT-1080, 100 μM Z-VAD-FMK, 48, 72, and 96 h): no significant rescue of cell viability
Cell viability after radiation (ATP-based luciferase assay) (HT-1080 cells [2]): not

CC(=O)N[C@@H](CS)C(=O)O [N-acetylcysteine]
Colony formation after radiation alone (HT-1080 cells [3]): rescued

COc1cccc2c1C(=O)c1c(O)c3c(c(O)c1C2=O)C[C@@](O)(C(=O)CO)C[C@@H]3O[C@H]1C[C@H](N)[C@H](O)[C@H](C)O1 [doxorubicin]
Enhancement of radiation effect on clonogenic survival (HT-1080 cells [3]): only slightly enhancing radiation-induced cell death
CDI with 4 Gy IR (HT-1080 cells [3]): 0.9
CDI with 2 Gy IR (HT-1080 cells [3]): 1.07
